Assay results published in patent US20120252748A1, “METHODS AND COMPOSITIONS FOR DETERMINING THE RESPONSIVENESS OF CANCER THERAPEUTICS” (New York University, priority 2011, published 2012).
pIC50: −log10 of the molar value. “Also recorded” adds a separate entry of the source. Like-named read-outs stand apart in the source and are kept apart here.

Legend:
[1] = test system: MDA-MB-415 cells; test: Growth response to estrogen, MDA-MB-415 cells; assay type: cell-based, human; details: MDA-MB-415 (ER-positive, ACSL4-positive), versus control without estrogen, FIG. 5
Description: (§1) As indicated above in the results of Example 2, two cell lines which were ER-positive where also ACSL4-positive. A study comparing cell growth in the presence of estrogen of one of these cell lines (MDA-MB-415) to a cell line which is ER-positive and ACSL4 negative (MCF-7) was performed.

[2] = test system: MCF-7 cells; test: Growth response to estrogen, MCF-7 cells; assay type: cell-based, human; details: MCF-7 (ER-positive, ACSL4-negative), versus estrogen-free control, FIG. 5, FIG. 6A
Description: as §1
(§2) Additionally, a study was performed in which cell growth in the presence of estrogen of the estrogen dependent MCF-7 cells, which are ACSL4 negative, were compared to modified MCF-7 cells, which were induced to express ACSL4.

[3] = test system: MCF-7 cells genetically manipulated to express ACSL4; test: Growth response to estrogen, MCF-7 cells genetically manipulated to express ACSL4; assay type: cell-based, human; details: MCF-7 expressing ACSL4, versus estrogen-free conditions, FIG. 6B
Description: as §2
(§3) An analysis was performed on breast cancer cell lines that are hormone receptor positive and positive for ACSL4 expression. […] In the present study, estrogen responsive MCF-7 cells, which are ACSL4-negative, were forced to express […]. […] The results were confirmed using conditional and stable transfection techniques.

[4] = test system: MDA-MB-231 cells; test: Effect of triacsin C on relative cell number of MDA-MB-231 control and ACSL4 knockdown cells; assay type: cell-based, human; details: for pIC50: FIG. 7C, read-out: half-maximal inhibitory concentration
Description: Relative differences in cell number were quantitated using the Cell Titer 96 AQueous Reagent purchased from Promega (Madison, Wis.). Protocols used were as described by the manufacturer.
MDA-MB-231 cells were treated for 48 hours with either a control or ACSL4-specific siRNA. The siRNA was a SmartPool siRNA obtained from Dharmacon, consisting of 4 separate siRNAs.
Next, the effect of triacsin C treatment on MDA-MB-231 control and knockdown cells were compared. […] Mashima et al., Cancer Sci., 100: 1556-1562 (2009).

[5] = target: T1, ACSL1 (Rattus norvegicus, UniProt P18163); details: cited from earlier work
T1 sequence (P18163 1-699): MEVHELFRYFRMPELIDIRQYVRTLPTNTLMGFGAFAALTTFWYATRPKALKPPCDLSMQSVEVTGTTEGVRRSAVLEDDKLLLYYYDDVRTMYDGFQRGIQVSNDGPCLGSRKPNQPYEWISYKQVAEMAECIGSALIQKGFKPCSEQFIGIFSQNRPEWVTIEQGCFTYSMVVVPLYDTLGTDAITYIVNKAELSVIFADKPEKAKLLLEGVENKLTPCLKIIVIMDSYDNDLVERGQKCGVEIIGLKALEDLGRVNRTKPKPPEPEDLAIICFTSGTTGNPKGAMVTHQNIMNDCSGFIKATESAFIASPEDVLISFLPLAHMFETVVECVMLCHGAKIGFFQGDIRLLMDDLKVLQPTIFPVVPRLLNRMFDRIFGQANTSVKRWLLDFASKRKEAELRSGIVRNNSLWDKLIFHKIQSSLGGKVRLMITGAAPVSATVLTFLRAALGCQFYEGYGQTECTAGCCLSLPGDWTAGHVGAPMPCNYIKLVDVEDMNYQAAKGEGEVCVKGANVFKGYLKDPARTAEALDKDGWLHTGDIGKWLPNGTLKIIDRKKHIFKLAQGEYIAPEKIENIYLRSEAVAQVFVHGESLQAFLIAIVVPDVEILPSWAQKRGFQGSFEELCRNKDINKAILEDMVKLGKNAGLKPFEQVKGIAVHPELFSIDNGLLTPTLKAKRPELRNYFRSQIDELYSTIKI

[6] = target: ACSL3 (Rattus norvegicus, UniProt Q63151); details: Van Horn et al. 2005; cited from earlier work
[7] = target: ACSL4 (Rattus norvegicus, UniProt O35547); details: cited from earlier work
[8] = target: T2, ACSL5 (Rattus norvegicus, UniProt O88813); details: Van Horn et al. 2005; cited from earlier work
T2 sequence (O88813 1-683): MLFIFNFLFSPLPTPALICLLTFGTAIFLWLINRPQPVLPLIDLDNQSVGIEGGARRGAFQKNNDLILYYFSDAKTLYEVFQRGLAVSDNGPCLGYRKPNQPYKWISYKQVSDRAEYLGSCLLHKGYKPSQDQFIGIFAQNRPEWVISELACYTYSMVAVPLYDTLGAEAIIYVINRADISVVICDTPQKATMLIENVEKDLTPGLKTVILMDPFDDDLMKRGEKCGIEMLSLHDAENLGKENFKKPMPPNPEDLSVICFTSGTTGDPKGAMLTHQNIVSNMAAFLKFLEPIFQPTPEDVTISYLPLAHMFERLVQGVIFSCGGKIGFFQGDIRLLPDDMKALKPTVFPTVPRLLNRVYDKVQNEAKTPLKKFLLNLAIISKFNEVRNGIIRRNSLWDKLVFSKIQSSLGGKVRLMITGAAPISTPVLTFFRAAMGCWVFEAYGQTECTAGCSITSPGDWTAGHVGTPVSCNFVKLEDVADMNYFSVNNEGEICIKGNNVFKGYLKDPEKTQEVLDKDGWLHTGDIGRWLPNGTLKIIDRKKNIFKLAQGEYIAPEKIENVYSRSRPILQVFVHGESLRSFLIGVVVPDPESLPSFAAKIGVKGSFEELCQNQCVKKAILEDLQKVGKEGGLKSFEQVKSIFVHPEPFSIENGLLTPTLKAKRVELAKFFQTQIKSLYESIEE

[9] = test system: ACSL6; details: Van Horn et al. 2005; cited from earlier work
[10] = test system: a variety of cancer cells; details: Mashima et al. 2009; cited from earlier work
[11] = test system: MCF-7 cells forced to express ACSL4; test: Tamoxifen sensitivity of MCF-7 cells forced to express ACSL4; assay type: cell-based, human; details: forced ACSL4 expression in MCF-7, FIG. 16
Description: as §3

ACSL4, sequence (O35547 whole entry): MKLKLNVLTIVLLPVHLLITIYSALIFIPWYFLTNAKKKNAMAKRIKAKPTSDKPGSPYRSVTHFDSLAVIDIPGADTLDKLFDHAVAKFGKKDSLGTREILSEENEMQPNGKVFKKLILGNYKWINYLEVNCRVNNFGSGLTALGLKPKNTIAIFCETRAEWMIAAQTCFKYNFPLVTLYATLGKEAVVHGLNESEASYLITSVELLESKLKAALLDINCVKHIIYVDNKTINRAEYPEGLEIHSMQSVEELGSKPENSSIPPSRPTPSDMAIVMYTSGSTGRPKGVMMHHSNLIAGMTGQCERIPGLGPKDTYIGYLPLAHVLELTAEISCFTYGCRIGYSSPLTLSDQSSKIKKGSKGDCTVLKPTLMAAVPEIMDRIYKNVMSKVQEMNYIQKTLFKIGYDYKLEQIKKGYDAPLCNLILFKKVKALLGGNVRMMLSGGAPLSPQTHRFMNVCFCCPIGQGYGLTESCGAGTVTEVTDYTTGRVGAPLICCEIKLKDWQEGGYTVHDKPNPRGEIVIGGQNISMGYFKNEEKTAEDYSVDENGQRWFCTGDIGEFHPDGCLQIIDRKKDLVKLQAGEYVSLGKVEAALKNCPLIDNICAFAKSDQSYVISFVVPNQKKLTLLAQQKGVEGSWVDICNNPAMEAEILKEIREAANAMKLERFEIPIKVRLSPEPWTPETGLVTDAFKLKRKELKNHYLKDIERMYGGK
ACSL3, sequence (Q63151 whole entry): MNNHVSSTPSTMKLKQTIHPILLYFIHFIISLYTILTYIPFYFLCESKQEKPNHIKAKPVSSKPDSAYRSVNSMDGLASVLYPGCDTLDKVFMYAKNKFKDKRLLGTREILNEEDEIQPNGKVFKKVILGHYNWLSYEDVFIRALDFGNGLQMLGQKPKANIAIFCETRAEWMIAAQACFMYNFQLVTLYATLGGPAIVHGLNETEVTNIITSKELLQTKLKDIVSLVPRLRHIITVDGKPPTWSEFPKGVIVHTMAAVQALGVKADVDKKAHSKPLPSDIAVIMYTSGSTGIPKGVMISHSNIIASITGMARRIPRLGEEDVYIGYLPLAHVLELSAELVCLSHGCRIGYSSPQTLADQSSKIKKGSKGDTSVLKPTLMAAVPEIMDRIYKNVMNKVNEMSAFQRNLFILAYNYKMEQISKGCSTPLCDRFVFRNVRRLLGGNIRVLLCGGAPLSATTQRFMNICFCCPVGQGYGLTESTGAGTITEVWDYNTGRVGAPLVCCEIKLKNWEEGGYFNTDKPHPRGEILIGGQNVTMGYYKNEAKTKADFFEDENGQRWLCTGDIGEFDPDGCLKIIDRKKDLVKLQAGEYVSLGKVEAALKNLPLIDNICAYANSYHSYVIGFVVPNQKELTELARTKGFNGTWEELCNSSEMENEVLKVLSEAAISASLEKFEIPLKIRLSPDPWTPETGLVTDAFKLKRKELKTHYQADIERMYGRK

Molecule: estrogen
- growth response to estrogen [1]: no significant growth response; also recorded: no increase in cellular proliferation
- growth response to estrogen [2]: significant growth response; also recorded: proliferative growth effect
- growth response to estrogen [3]: became unresponsive to the proliferative effect; also recorded: loss of responsiveness

Molecule: CCC/C=C/C/C=C/C=C/C=N/NN=O [triacsin C]
- increase in triacsin C sensitivity on ablation of ACSL4 ([4]; ACSL4 knockdown versus control MDA-MB-231 cells): three-fold increase
- pIC50 ([4]; MDA-MB-231 ACSL4 knockdown cells (ACSL4-siRNA)): 6.25
- pIC50 ([4]; MDA-MB-231 control cells (control siRNA)): 5.80
- inhibition of ACSL1 ([5]; Van Horn et al. 2005): specific for inhibition
- relative sensitivity by reported half-maximal inhibitory concentration values ([5]; ranking among ACSL1, 3 and 4): most sensitive
- inhibition of ACSL3 [6]: specific for inhibition
- inhibition of ACSL4 ([7]; Van Horn et al. 2005): specific for inhibition
- relative sensitivity by reported half-maximal inhibitory concentration values ([7]; ranking among ACSL1, 3 and 4): least sensitive
- effect on the activity of ACSL5 [8]: little or no effect
- effect on the activity of ACSL6 [9]: little or no effect
- apoptosis of cancer cells [10]: induce apoptosis
- proliferation of cancer cells [10]: inhibit proliferation

Molecule: CC/C(=C(\c1ccccc1)c1ccc(OCCN(C)C)cc1)c1ccccc1 [tamoxifen]
- sensitivity to tamoxifen treatment [11]: decrease in the sensitivity
